# Tests used:
# Test in all cases: Post-emergence herbicidal effect, greenhouse pot test
# ABUTH = type: in vivo, Abutilon theophrasti; settings: visual rating about 3 weeks after treatment
# Outline: (§1)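 Visual % activity scored roughly 3 weeks post-spray against untreated plants, where 100% means death and 0% equals control. Plants were treated at the one-leaf stage, 2 to 3 weeks after sowing in sandy loam, at 20 to 320 g/ha.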
# ALOMY = type: in vivo, Alopecurus myosuroides; settings: visual rating about 3 weeks after treatment
# Outline: as §1
# AMARE = type: in vivo, Amaranthus retroflexus; settings: visual rating about 3 weeks after treatment
# Outline: as §1
# AVEFA = type: in vivo, Avena fatua; settings: visual rating about 3 weeks after treatment
# Outline: as §1
# DIGSA = type: in vivo, Digitaria sanguinalis; settings: visual rating about 3 weeks after treatment; for Post-emergence effect against DIGSA: 320 g/ha; for pest or weed control at 80 g/ha: Digitaria sanguinalis, 504 h, read-out: Post-emergence effect against DIGSA
# Outline: as §1
# ECHCG = type: in vivo, Echinochloa crus-galli; settings: for Post-emergence effect against ECHCG: 20 g/ha, visual rating about 3 weeks after treatment
# Outline: as §1
# LOLRI = type: in vivo, Lolium rigidum
# Outline: as §1
# MATIN = type: in vivo, Tripleurospermum inodorum
# Outline: as §1
# PHBPU = type: in vivo, Ipomoea purpurea
# Outline: as §1
# POLCO = type: in vivo, Fallopia convolvulus
# Outline: as §1
# SETVI = type: in vivo, Setaria viridis; settings: for pest or weed control at 20 g/ha: Setaria viridis, 504 h, read-out: Post-emergence effect against SETVI in %
# Outline: as §1
# VERPE = type: in vivo, Veronica persica
# Outline: as §1
# VIOTR = type: in vivo, Viola tricolor
# Outline: as §1
# KCHSC = type: in vivo; settings: for pest or weed control at 20 g/ha: 504 h, read-out: Post-emergence effect against KCHSC in %
# Outline: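 Visual rating of activity against untreated plants (100% = plants died, 0% = no effect), done about 3 weeks after treatment. Compounds applied at 20–320 g/ha as aqueous spray (600 l/ha, 0.5% additive) from WP or EC formulations onto one-leaf-stage plants grown in sandy loam under greenhouse conditions.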
SMILES,Post-emergence effect against ABUTH (ABUTH; 80 g/ha),Post-emergence effect against ABUTH (ABUTH; 320 g/ha),Post-emergence effect against ALOMY (ALOMY; 320 g/ha),Post-emergence effect against AMARE (AMARE; 320 g/ha),Post-emergence effect against AVEFA (AVEFA; 80 g/ha),Post-emergence effect against AVEFA (AVEFA; 320 g/ha),Post-emergence effect against DIGSA (DIGSA),pest or weed control at 80 g/ha (DIGSA),Post-emergence effect against ECHCG (ECHCG),Post-emergence effect against ECHCG in % (ECHCG; 80 g/ha),Post-emergence effect against ECHCG in % (ECHCG; 320 g/ha),Post-emergence effect against LOLRI in % (LOLRI; 320 g/ha),Post-emergence effect against MATIN in % (MATIN; 80 g/ha),Post-emergence effect against MATIN in % (MATIN; 320 g/ha),Post-emergence effect against PHBPU in % (PHBPU; 80 g/ha),Post-emergence effect against PHBPU in % (PHBPU; 320 g/ha),Post-emergence effect against POLCO in % (POLCO; 80 g/ha),Post-emergence effect against POLCO in % (POLCO; 320 g/ha),Post-emergence effect against SETVI in % (SETVI; 80 g/ha),Post-emergence effect against SETVI in % (SETVI; 320 g/ha),other results
COC(Oc1nn(-c2ncccc2F)c(-c2cncc(F)c2)c1C1CC1)C(=O)O (stereo not shown) [Example I-84],80%,80%,90%,80%,90%,90%,90%,80%,90%,90%,90%,90%,80%,80%,90%,90%,90%,90%,90%,90%,"pest or weed control at 80 g/ha (AMARE; Amaranthus retroflexus, 504 h, 80 g/ha, read-out: Post-emergence effect against AMARE): 80%; pest or weed control at 80 g/ha (LOLRI; Lolium rigidum, 504 h, 80 g/ha, read-out: Post-emergence effect against LOLRI in %): 90%; pest or weed control at 20 g/ha (PHBPU; Ipomoea purpurea, 504 h, 20 g/ha, read-out: Post-emergence effect against PHBPU in %): 80%; pest or weed control at 20 g/ha (SETVI): 80%; Post-emergence effect against VERPE in % (VERPE; 80 g/ha): 90%; Post-emergence effect against VERPE in % (VERPE; 320 g/ha): 90%; Post-emergence effect against VIOTR in % (VIOTR; 80 g/ha): 90%; Post-emergence effect against VIOTR in % (VIOTR; 320 g/ha): 90%; Post-emergence effect against KCHSC in % (KCHSC; 80 g/ha): 90%; Post-emergence effect against KCHSC in % (KCHSC; 320 g/ha): 90%; pest or weed control at 20 g/ha (KCHSC): 90%"
COC(=O)C(OC)Oc1nn(-c2ncccc2F)c(-c2cncc(F)c2)c1C1CC1 (stereo not shown) [Example I-87],90%,90%,90%,90%,90%,90%,90%,80%,90%,90%,90%,90%,80%,80%,90%,90%,90%,90%,90%,90%,"pest or weed control at 20 g/ha (ABUTH; Abutilon theophrasti, 504 h, 20 g/ha, read-out: Post-emergence effect against ABUTH): 90%; Post-emergence effect against ALOMY (ALOMY; 80 g/ha): 90%; Post-emergence effect against AMARE (AMARE; 80 g/ha): 80%; Post-emergence effect against LOLRI in % (LOLRI; 80 g/ha): 90%; Post-emergence effect against PHBPU in % (PHBPU; 20 g/ha): 90%; Post-emergence effect against POLCO in % (POLCO; 20 g/ha): 80%; pest or weed control at 20 g/ha (SETVI): 90%; Post-emergence effect against VERPE in % (VERPE; 80 g/ha): 90%; Post-emergence effect against VERPE in % (VERPE; 320 g/ha): 90%; pest or weed control at 20 g/ha (VERPE; Veronica persica, 504 h, 20 g/ha, read-out: Post-emergence effect against VERPE in %): 80%; Post-emergence effect against VIOTR in % (VIOTR; 20 g/ha): 90%; Post-emergence effect against VIOTR in % (VIOTR; 80 g/ha): 90%; Post-emergence effect against VIOTR in % (VIOTR; 320 g/ha): 90%; Post-emergence effect against KCHSC in % (KCHSC; 80 g/ha): 90%; Post-emergence effect against KCHSC in % (KCHSC; 320 g/ha): 90%; pest or weed control at 20 g/ha (KCHSC): 90%"
